Experiments:
Assay in all cases: Broad selectivity panel, 32P incorporation
Assay type in all cases: biochemical
c-RAF = biological target: T1, c-RAF (Homo sapiens, UniProt P04049); settings: 40 μM ATP, read-out: Percent inhibition c-RAF; for inhibition at 0.1 µM: 0.1 μM compound; for inhibition at 1 µM: 1 μM compound
T1 construct: purchased Upstate (Charlottesville, Va.)
Experimental: (§1) Various compounds of the present invention are screened against a panel of 24 additional kinases (Upstate, Charlottesville, Va.). Compounds are tested 0.1 μM and 1 μM in reactions containing 40 μM ATP. Incorporation of radiolabeled phosphate (^32P) into each kinase substrate is measured in the presence and absence of test compound. Results are reported as the percent decrease in the amount of ^32P incorporated into the substrate in the presence of compound, compared to buffer control.

JNK3-His = biological target: T2, JNK3-His (Homo sapiens, UniProt P53779); settings: 40 μM ATP, read-out: Percent inhibition JNK3-His; for inhibition at 0.1 µM: 0.1 μM compound; for inhibition at 1 µM: 1 μM compound
T2 construct: His; purchased Upstate (Charlottesville, Va.)
T2 sequence (P53779 whole entry): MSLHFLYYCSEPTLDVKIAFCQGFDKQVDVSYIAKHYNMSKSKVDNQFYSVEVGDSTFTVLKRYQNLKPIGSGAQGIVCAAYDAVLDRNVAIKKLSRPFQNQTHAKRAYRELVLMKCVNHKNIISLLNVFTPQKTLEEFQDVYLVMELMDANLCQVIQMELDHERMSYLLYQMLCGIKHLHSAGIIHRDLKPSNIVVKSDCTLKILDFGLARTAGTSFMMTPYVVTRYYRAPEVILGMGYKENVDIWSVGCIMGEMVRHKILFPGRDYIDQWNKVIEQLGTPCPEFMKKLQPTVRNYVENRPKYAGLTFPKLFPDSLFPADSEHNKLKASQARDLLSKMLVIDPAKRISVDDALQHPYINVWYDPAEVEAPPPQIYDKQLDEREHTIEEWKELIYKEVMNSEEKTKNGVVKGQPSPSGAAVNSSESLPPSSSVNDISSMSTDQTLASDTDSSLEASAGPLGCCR
Experimental: as §1

SAPK4 = biological target: T3, SAPK4 (Homo sapiens, UniProt O15264); settings: 40 μM ATP, read-out: Percent inhibition SAPK4; for inhibition at 0.1 µM: 0.1 μM compound; for inhibition at 1 µM: 1 μM compound
T3 construct: purchased Upstate (Charlottesville, Va.)
T3 sequence (O15264 1-365): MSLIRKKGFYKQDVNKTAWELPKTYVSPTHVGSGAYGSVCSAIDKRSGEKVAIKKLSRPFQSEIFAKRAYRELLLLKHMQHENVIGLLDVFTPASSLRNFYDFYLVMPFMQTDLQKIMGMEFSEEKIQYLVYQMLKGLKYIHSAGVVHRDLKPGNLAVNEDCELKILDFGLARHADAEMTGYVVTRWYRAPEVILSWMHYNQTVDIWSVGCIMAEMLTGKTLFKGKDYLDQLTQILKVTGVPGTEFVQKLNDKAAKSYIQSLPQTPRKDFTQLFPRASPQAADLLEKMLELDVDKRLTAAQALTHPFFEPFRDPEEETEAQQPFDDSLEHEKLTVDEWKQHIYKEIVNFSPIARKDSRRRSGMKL
Experimental: as §1

MKK6 = biological target: T4, MKK6 (Homo sapiens, UniProt P52564); settings: 40 μM ATP, read-out: Percent inhibition MKK6; for inhibition at 0.1 µM: 0.1 μM compound; for inhibition at 1 µM: 1 μM compound
T4 construct: purchased Upstate (Charlottesville, Va.)
T4 sequence (P52564 1-334): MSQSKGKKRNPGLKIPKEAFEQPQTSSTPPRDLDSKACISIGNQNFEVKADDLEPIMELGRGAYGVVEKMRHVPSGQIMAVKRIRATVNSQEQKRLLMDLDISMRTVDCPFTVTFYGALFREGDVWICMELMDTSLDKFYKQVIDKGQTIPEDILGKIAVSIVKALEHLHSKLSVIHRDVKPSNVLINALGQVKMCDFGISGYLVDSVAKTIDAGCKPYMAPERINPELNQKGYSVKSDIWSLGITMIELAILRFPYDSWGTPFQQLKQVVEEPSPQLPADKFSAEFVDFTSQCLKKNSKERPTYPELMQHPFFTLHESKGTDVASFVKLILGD
Experimental: as §1

p70S6K = settings: 40 μM ATP
Experimental: as §1

CK2 = biological target: T5, CK2 (Homo sapiens, UniProt P68400); settings: 40 μM ATP, read-out: Percent inhibition CK2; for inhibition at 0.1 µM: 0.1 μM compound; for inhibition at 1 µM: 1 μM compound
T5 construct: purchased Upstate (Charlottesville, Va.)
T5 sequence (P68400 whole entry): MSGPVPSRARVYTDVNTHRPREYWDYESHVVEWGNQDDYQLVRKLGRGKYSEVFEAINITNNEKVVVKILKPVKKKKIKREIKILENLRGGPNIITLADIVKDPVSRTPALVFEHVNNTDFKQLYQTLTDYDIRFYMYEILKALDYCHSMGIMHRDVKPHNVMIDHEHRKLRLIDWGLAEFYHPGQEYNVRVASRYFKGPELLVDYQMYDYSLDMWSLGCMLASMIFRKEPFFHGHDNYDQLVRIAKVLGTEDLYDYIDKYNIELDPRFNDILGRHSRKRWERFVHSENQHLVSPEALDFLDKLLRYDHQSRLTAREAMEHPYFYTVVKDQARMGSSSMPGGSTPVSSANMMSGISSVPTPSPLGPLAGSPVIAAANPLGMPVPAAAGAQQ
T5 sequence (P67870 whole entry partner): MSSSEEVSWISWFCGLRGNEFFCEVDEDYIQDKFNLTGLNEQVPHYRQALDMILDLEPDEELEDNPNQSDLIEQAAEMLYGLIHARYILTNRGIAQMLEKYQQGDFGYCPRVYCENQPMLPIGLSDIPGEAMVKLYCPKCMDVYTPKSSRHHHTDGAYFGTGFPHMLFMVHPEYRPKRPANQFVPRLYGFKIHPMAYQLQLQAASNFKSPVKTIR
Experimental: as §1

PKBβ = biological target: T6, PKBβ (Homo sapiens, UniProt P31751); settings: 40 μM ATP, read-out: Percent inhibition PKBβ; for inhibition at 0.1 µM: 0.1 μM compound; for inhibition at 1 µM: 1 μM compound
T6 construct: purchased Upstate (Charlottesville, Va.)
T6 sequence (P31751 whole entry, species assumed): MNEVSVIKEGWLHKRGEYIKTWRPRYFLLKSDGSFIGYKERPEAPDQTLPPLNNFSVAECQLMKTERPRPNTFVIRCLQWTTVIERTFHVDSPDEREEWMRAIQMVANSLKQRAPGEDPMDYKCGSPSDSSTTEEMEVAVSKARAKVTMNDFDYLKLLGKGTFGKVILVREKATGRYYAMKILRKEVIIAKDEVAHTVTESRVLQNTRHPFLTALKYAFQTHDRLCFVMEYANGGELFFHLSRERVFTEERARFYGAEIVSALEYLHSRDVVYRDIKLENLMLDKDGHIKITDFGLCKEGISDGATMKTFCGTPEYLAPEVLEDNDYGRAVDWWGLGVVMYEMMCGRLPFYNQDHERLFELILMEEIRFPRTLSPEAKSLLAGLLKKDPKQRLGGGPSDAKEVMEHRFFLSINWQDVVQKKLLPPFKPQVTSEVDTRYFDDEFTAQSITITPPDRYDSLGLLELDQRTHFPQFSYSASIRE
Experimental: as §1

FGFR3 = biological target: T7, FGFR3 (Homo sapiens, UniProt P22607); settings: 40 μM ATP, read-out: Percent inhibition FGFR3; for inhibition at 0.1 µM: 0.1 μM compound; for inhibition at 1 µM: 1 μM compound
T7 construct: purchased Upstate (Charlottesville, Va.)
T7 sequence (P22607 23-806, species assumed): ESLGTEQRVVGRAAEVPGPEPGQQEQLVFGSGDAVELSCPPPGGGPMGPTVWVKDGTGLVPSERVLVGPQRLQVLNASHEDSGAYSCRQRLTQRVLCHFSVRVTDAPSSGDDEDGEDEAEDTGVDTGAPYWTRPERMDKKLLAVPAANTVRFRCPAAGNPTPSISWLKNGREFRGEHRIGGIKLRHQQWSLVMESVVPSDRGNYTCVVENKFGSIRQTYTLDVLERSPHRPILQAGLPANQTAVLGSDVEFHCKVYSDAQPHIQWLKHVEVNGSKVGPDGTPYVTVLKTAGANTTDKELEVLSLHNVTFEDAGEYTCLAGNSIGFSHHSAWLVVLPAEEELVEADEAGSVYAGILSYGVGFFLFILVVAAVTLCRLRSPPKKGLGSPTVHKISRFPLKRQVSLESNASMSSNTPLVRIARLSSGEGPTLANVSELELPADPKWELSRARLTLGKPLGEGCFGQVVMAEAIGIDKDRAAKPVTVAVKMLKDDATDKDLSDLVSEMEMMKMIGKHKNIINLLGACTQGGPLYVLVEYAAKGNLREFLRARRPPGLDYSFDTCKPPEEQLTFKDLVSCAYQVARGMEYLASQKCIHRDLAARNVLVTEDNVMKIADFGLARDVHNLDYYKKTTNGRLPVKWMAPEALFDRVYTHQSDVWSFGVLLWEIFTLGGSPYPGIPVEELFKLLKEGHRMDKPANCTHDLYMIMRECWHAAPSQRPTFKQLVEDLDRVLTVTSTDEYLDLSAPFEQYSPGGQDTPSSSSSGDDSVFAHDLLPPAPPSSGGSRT
Experimental: as §1

MAPK1 = biological target: T8, MAPK1 (Homo sapiens, UniProt P27361); settings: 40 μM ATP, read-out: Percent inhibition MAPK1; for inhibition at 0.1 µM: 0.1 μM compound; for inhibition at 1 µM: 1 μM compound
T8 construct: purchased Upstate (Charlottesville, Va.)
T8 sequence (P27361 whole entry): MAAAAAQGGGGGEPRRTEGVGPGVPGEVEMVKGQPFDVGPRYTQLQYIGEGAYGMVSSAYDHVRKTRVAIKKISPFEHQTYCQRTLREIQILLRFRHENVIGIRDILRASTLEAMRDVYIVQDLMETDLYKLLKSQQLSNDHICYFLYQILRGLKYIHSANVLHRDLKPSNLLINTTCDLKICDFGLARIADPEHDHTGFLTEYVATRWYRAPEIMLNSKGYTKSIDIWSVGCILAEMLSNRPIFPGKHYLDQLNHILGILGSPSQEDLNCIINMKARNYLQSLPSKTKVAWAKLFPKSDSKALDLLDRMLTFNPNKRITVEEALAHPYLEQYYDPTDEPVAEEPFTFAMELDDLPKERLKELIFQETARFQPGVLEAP
Experimental: as §1

GSK3β = biological target: T9, GSK3β (Homo sapiens, UniProt P49841); settings: 40 μM ATP, read-out: Percent inhibition GSK3β; for inhibition at 0.1 µM: 0.1 μM compound; for inhibition at 1 µM: 1 μM compound
T9 construct: purchased Upstate (Charlottesville, Va.)
T9 sequence (P49841 whole entry, species assumed): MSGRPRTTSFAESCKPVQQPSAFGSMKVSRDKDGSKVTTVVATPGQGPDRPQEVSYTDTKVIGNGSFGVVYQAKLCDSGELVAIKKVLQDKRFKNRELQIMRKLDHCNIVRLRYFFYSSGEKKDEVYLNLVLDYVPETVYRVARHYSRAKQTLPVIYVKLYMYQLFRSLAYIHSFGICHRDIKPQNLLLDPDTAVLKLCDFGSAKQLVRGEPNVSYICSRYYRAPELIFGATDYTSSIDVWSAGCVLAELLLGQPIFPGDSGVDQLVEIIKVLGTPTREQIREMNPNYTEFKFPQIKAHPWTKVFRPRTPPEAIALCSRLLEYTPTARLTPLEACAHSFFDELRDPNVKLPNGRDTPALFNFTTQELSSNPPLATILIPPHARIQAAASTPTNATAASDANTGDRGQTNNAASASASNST
Experimental: as §1

ZAP-70 = biological target: T10, ZAP-70 (Homo sapiens, UniProt P43403); settings: 40 μM ATP, read-out: Percent inhibition ZAP-70; for inhibition at 0.1 µM: 0.1 μM compound; for inhibition at 1 µM: 1 μM compound
T10 construct: purchased Upstate (Charlottesville, Va.)
T10 sequence (P43403 1-619): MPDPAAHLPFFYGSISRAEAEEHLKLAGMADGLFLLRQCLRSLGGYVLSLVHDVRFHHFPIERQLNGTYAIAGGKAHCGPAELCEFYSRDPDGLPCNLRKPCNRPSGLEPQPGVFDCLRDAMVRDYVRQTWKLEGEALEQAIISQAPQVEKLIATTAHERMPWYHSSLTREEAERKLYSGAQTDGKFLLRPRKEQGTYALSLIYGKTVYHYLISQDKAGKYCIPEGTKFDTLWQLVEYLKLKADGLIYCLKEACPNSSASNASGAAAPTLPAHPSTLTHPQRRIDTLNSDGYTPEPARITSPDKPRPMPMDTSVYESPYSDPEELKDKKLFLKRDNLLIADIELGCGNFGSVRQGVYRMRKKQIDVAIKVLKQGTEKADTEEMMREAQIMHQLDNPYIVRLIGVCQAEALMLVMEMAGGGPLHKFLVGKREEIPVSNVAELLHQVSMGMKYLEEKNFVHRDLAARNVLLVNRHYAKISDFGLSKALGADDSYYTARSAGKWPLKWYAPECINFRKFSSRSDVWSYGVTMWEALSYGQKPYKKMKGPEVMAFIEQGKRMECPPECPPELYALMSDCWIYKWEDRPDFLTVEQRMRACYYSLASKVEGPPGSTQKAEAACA
Experimental: as §1

JNK1α1 = biological target: T11, JNK1α1 (Homo sapiens, UniProt P45983); settings: 40 μM ATP, read-out: Percent inhibition JNK1α1; for inhibition at 0.1 µM: 0.1 μM compound; for inhibition at 1 µM: 1 μM compound
T11 construct: purchased Upstate (Charlottesville, Va.)
T11 sequence (P45983 1-384 isoform P45983-2, species assumed): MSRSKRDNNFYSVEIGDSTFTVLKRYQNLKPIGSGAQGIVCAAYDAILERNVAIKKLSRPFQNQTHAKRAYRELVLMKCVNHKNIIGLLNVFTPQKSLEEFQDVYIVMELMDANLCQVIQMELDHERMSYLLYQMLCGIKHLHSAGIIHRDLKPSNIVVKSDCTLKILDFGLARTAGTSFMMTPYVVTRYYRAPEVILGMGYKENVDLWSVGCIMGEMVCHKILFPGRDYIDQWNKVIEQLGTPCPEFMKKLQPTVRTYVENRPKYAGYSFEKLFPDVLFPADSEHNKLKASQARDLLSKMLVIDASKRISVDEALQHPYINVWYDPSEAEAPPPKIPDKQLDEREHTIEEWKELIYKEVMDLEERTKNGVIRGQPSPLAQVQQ
Experimental: as §1

PKB α = biological target: T12, PKB α (Homo sapiens, UniProt P31749); settings: 40 μM ATP, read-out: Percent inhibition PKB α; for inhibition at 0.1 µM: 0.1 μM compound; for inhibition at 1 µM: 1 μM compound
T12 construct: purchased Upstate (Charlottesville, Va.)
T12 sequence (P31749 whole entry, species assumed): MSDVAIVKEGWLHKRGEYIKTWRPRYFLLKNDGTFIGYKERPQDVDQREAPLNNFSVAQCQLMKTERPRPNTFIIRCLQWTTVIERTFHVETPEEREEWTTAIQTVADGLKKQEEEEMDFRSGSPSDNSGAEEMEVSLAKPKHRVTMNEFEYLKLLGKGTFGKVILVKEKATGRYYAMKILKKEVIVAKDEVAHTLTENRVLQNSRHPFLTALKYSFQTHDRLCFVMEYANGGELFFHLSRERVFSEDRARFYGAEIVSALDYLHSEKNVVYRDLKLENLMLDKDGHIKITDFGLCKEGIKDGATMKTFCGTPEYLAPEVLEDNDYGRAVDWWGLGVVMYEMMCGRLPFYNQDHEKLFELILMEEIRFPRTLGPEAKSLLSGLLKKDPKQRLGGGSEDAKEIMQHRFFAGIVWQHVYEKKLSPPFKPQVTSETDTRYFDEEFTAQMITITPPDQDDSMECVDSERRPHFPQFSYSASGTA
Experimental: as §1

T1 sequence (P04049 whole entry, species assumed): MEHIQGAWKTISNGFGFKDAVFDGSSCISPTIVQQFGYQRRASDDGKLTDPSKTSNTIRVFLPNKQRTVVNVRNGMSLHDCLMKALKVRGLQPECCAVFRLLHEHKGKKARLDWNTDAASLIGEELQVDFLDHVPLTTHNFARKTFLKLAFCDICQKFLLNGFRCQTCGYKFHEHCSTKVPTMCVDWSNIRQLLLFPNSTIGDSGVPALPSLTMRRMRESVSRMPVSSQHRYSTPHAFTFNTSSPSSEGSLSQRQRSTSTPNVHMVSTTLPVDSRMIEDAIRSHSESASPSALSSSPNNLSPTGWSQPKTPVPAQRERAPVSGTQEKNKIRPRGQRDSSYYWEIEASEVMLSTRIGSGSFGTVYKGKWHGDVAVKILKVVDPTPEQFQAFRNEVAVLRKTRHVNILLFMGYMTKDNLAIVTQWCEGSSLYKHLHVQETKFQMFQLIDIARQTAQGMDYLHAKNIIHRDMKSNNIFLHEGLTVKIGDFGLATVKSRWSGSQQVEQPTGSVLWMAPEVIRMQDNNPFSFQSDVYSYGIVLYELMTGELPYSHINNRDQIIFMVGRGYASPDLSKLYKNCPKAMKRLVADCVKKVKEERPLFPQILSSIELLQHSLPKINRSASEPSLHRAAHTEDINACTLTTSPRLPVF

Structure (SMILES): CS(=O)(=O)N1CCC(Nc2nccc(-c3c(-c4ccc(F)cc4)nc4occn34)n2)CC1 [CCLXXIX]
- inhibition at 0.1 µM (c-RAF): 32%
- inhibition at 1 µM (c-RAF): 83%
- inhibition at 0.1 µM (JNK3-His): 97%
- inhibition at 1 µM (JNK3-His): 101%
- inhibition at 0.1 µM (SAPK4): 3%
- inhibition at 1 µM (SAPK4): 0%
- inhibition at 0.1 µM (MKK6): 8%
- inhibition at 1 µM (MKK6): 90%
- Percent inhibition p70S6K (p70S6K; 0.1 μM compound): 9
- Percent inhibition p70S6K (p70S6K; 1 μM compound): 10
- inhibition at 0.1 µM (CK2): 8%
- inhibition at 1 µM (CK2): 4%
- inhibition at 0.1 µM (PKBβ): 0%
- inhibition at 1 µM (PKBβ): -30%
- inhibition at 0.1 µM (FGFR3): 9%
- inhibition at 1 µM (FGFR3): 10%
- inhibition at 0.1 µM (MAPK1): 29%
- inhibition at 1 µM (MAPK1): 79%
- inhibition at 0.1 µM (GSK3β): 15%
- inhibition at 1 µM (GSK3β): 57%
- inhibition at 0.1 µM (ZAP-70): 13%
- inhibition at 1 µM (ZAP-70): -1%
- inhibition at 0.1 µM (JNK1α1): 37%
- inhibition at 1 µM (JNK1α1): 86%
- inhibition at 0.1 µM (PKB α): 5%
- inhibition at 1 µM (PKB α): 6%

Structure (SMILES): CN1[C@@H]2CC[C@H]1C[C@@H](Nc1nccc(-c3c(-c4ccc(F)cc4)nc4occn34)n1)C2 [CCLXXXI]
- inhibition at 0.1 µM (c-RAF): -4%
- inhibition at 1 µM (c-RAF): 8%
- inhibition at 0.1 µM (JNK3-His): 19%
- inhibition at 1 µM (JNK3-His): 75%
- inhibition at 0.1 µM (SAPK4): 2%
- inhibition at 1 µM (SAPK4): 7%
- inhibition at 0.1 µM (MKK6): 19%
- inhibition at 1 µM (MKK6): 76%
- Percent inhibition p70S6K (p70S6K; 0.1 μM compound): −16
- Percent inhibition p70S6K (p70S6K; 1 μM compound): −10
- inhibition at 0.1 µM (CK2): 6%
- inhibition at 1 µM (CK2): 16%
- inhibition at 0.1 µM (PKBβ): -12%
- inhibition at 1 µM (PKBβ): 13%
- inhibition at 0.1 µM (FGFR3): -27%
- inhibition at 1 µM (FGFR3): 26%
- inhibition at 0.1 µM (MAPK1): 25%
- inhibition at 1 µM (MAPK1): 49%
- inhibition at 0.1 µM (GSK3β): 6%
- inhibition at 1 µM (GSK3β): 19%
- inhibition at 0.1 µM (ZAP-70): 12%
- inhibition at 1 µM (ZAP-70): 30%
- inhibition at 0.1 µM (JNK1α1): -13%
- inhibition at 1 µM (JNK1α1): 6%
- inhibition at 0.1 µM (PKB α): -2%
- inhibition at 1 µM (PKB α): 6%

Structure (SMILES): Fc1ccc(-c2nc3occn3c2-c2ccnc(N[C@H]3CN4CCC3CC4)n2)cc1 [LXXXVII]
- inhibition at 0.1 µM (c-RAF): 15%
- inhibition at 1 µM (c-RAF): 58%
- inhibition at 0.1 µM (JNK3-His): 19%
- inhibition at 1 µM (JNK3-His): 61%
- inhibition at 0.1 µM (SAPK4): -3%
- inhibition at 1 µM (SAPK4): -1%
- inhibition at 0.1 µM (MKK6): -4%
- inhibition at 1 µM (MKK6): 54%
- Percent inhibition p70S6K (p70S6K; 0.1 μM compound): −4
- Percent inhibition p70S6K (p70S6K; 1 μM compound): −1
- inhibition at 0.1 µM (CK2): 4%
- inhibition at 1 µM (CK2): 4%
- inhibition at 0.1 µM (PKBβ): -26%
- inhibition at 1 µM (PKBβ): -29%
- inhibition at 0.1 µM (FGFR3): -23%
- inhibition at 1 µM (FGFR3): -21%
- inhibition at 0.1 µM (MAPK1): 12%
- inhibition at 1 µM (MAPK1): 27%
- inhibition at 0.1 µM (GSK3β): 6%
- inhibition at 1 µM (GSK3β): 8%
- inhibition at 0.1 µM (ZAP-70): -51%
- inhibition at 1 µM (ZAP-70): -14%
- inhibition at 0.1 µM (JNK1α1): -25%
- inhibition at 1 µM (JNK1α1): 0%
- inhibition at 0.1 µM (PKB α): -2%
- inhibition at 1 µM (PKB α): 5%

Structure (SMILES): CC(=O)N1CCC(Nc2nccc(-c3c(-c4ccc(F)cc4)nc4occn34)n2)CC1 [CCLXXVIII]
- inhibition at 0.1 µM (c-RAF): 26%
- inhibition at 1 µM (c-RAF): 66%
- inhibition at 0.1 µM (JNK3-His): 78%
- inhibition at 1 µM (JNK3-His): 100%
- inhibition at 0.1 µM (SAPK4): -3%
- inhibition at 1 µM (SAPK4): -4%
- inhibition at 0.1 µM (MKK6): 26%
- inhibition at 1 µM (MKK6): 83%
- Percent inhibition p70S6K (p70S6K; 0.1 μM compound): −11
- Percent inhibition p70S6K (p70S6K; 1 μM compound): 4
- inhibition at 0.1 µM (CK2): 5%
- inhibition at 1 µM (CK2): 10%
- inhibition at 0.1 µM (PKBβ): -3%
- inhibition at 1 µM (PKBβ): 41%
- inhibition at 0.1 µM (FGFR3): 19%
- inhibition at 1 µM (FGFR3): 32%
- inhibition at 0.1 µM (MAPK1): 25%
- inhibition at 1 µM (MAPK1): 63%
- inhibition at 0.1 µM (GSK3β): 16%
- inhibition at 1 µM (GSK3β): 66%
- inhibition at 0.1 µM (ZAP-70): -53%
- inhibition at 1 µM (ZAP-70): 18%
- inhibition at 0.1 µM (JNK1α1): -13%
- inhibition at 1 µM (JNK1α1): 61%
- inhibition at 0.1 µM (PKB α): -6%
- inhibition at 1 µM (PKB α): 4%
